Our source for the TGI and GI50 values is PubChem BioAssay (NCI).

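Method: 48-hour compound exposure of cells in 96-well plates, five concentrations, linear interpolation of endpoints. GI50 marks 50% less growth. TGI denotes the concentration required for complete inhibition of growth.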

Some test systems named below: NCI/ADR-RES ovarian; HOP-62 NSCLC; SR leukemia; SK-MEL-5 melanoma; IGROV1 ovarian; NCI-H23 lung; LOX IMVI melanoma; A498 renal; OVCAR-5 ovarian; TK-10 renal.
Common to all, as to assay: NCI tumour cell line growth inhibition, 48 h

Consider `COc1cc2c(c(OC)c1OC)-c1ccc(SC)c(=O)cc1[C@@H](NC(=O)C(F)(F)F)CC2`, for which the TGI in the test on NCI/ADR-RES ovarian is 79.9 µM; in the test with HOP-62 NSCLC, greater than 100 µM; in the test on SR leukemia, greater than 100 µM; in the test on SK-MEL-5 melanoma, 0.138 µM; in the test on IGROV1 ovarian it was greater than 100 µM; in the test with NCI-H23 lung it was greater than 4.64 µM. In addition, the TGI was greater than 87.3 µM with LOX IMVI melanoma, 1.86 µM with A498 renal, greater than 100 µM in the test on OVCAR-5 ovarian and greater than 100 µM in the test with TK-10 renal.
Turning to `COc1cc2ncnc(Nc3ccc(Oc4ccnc(C)c4)c(C)c3)c2cc1NC(=O)CC1CCSS1` (centres undefined), the GI50 is 2.14 µM with NCI/ADR-RES ovarian; 1.16 µM with HOP-62 NSCLC; 0.365 µM with SR leukemia; 0.974 µM with SK-MEL-5 melanoma; 1.54 µM in the test with IGROV1 ovarian; 1.07 µM with NCI-H23 lung. Further, the GI50 in the test with LOX IMVI melanoma was 2.62 µM; in the test on A498 renal, 7.94 µM; with OVCAR-5 ovarian, 1.87 µM; in the test on TK-10 renal it was 0.896 µM. Also, the TGI with NCI/ADR-RES ovarian is greater than 50 µM; in the test with HOP-62 NSCLC, 2.91 µM; in the test on SR leukemia, 2.99 µM; in the test on SK-MEL-5 melanoma, 1.99 µM; in the test with IGROV1 ovarian, greater than 50 µM; in the test on NCI-H23 lung it was 2.5 µM. Further, the TGI in the test on LOX IMVI melanoma was greater than 50 µM; with A498 renal it was 22.8 µM; in the test on OVCAR-5 ovarian, greater than 50 µM; in the test with TK-10 renal, 1.84 µM.
`O=C(Nc1ccccc1)OC1OC(COC(=O)c2ccccc2)C(OC(=O)c2ccccc2)C1OS(=O)(=O)c1ccc([N+](=O)[O-])cc1` (centres undefined): the TGI in the test with NCI/ADR-RES ovarian, in the test with HOP-62 NSCLC, in the test with SR leukemia, with SK-MEL-5 melanoma, in the test with IGROV1 ovarian and with NCI-H23 lung was greater than 100 µM throughout. The TGI in the test on LOX IMVI melanoma, with A498 renal, in the test on OVCAR-5 ovarian and with TK-10 renal was greater than 100 µM each time.
Take `O=C(c1ccc([N+](=O)[O-])cc1)C(Br)C(Br)c1ccnc2ccccc12` (centres undefined): the TGI with NCI/ADR-RES ovarian was greater than 71.7 µM; in the test with HOP-62 NSCLC, 29.7 µM; with SR leukemia, 5.69 µM; with SK-MEL-5 melanoma, 20 µM; in the test with IGROV1 ovarian, 30 µM; in the test on NCI-H23 lung it was greater than 21.9 µM. In addition, the TGI with LOX IMVI melanoma is 4.71 µM; in the test on A498 renal it was 25.7 µM; in the test on OVCAR-5 ovarian, 33 µM; in the test with TK-10 renal it was 12.6 µM.
Take `O=C(Nc1cc(F)c(F)cc1C(=O)O)c1ccc(-n2ccnc2)nn1`: the GI50 was greater than 100 µM in the test with NCI/ADR-RES ovarian; greater than 100 µM in the test on HOP-62 NSCLC; 27.9 µM with SR leukemia; greater than 100 µM in the test with SK-MEL-5 melanoma; greater than 100 µM in the test with IGROV1 ovarian; greater than 100 µM in the test with NCI-H23 lung. Also, the GI50 with LOX IMVI melanoma is greater than 100 µM; in the test with A498 renal, 13 µM; in the test on OVCAR-5 ovarian, greater than 100 µM; in the test with TK-10 renal it was greater than 100 µM. For the same molecule, the TGI with NCI/ADR-RES ovarian, in the test with HOP-62 NSCLC, with SR leukemia, with SK-MEL-5 melanoma, in the test on IGROV1 ovarian and in the test with NCI-H23 lung was greater than 100 µM in each case. The TGI was greater than 100 µM with LOX IMVI melanoma, 82 µM with A498 renal, greater than 100 µM with OVCAR-5 ovarian and greater than 100 µM in the test with TK-10 renal.
As to `COc1ccc(C(=O)c2cc3c(N)c(C(=O)Nc4cccc(Br)c4C)sc3nc2C)cc1`, the GI50 was 0.0402 µM in the test with NCI/ADR-RES ovarian; 0.0729 µM in the test on HOP-62 NSCLC; 0.0354 µM in the test with SR leukemia; 0.193 µM in the test with SK-MEL-5 melanoma; 0.0869 µM in the test with IGROV1 ovarian; 0.354 µM in the test with NCI-H23 lung. Also, the GI50 is 0.0615 µM with LOX IMVI melanoma, 0.0238 µM in the test on A498 renal, 0.187 µM in the test on OVCAR-5 ovarian and 36.4 µM with TK-10 renal. Also, the TGI was greater than 100 µM in the test with NCI/ADR-RES ovarian; greater than 100 µM in the test with HOP-62 NSCLC; 1.81 µM in the test with SK-MEL-5 melanoma; greater than 100 µM with IGROV1 ovarian; greater than 100 µM in the test with NCI-H23 lung; greater than 100 µM in the test with LOX IMVI melanoma. The TGI with A498 renal was 0.26 µM; in the test on OVCAR-5 ovarian, greater than 100 µM; in the test with TK-10 renal, greater than 100 µM.
For `O=C1Cc2cc(CCn3cncn3)c(Cl)cc2N1`, the GI50 with NCI/ADR-RES ovarian was 5.85 µM; in the test with HOP-62 NSCLC it was 29.9 µM; in the test with SR leukemia, 11.8 µM; with SK-MEL-5 melanoma, 10.1 µM; in the test with IGROV1 ovarian it was greater than 100 µM; with NCI-H23 lung it was greater than 100 µM. Moreover, the GI50 was greater than 100 µM in the test with LOX IMVI melanoma, 32.5 µM with A498 renal, greater than 100 µM with OVCAR-5 ovarian and greater than 100 µM with TK-10 renal. Also, the TGI with NCI/ADR-RES ovarian, with HOP-62 NSCLC, with SR leukemia, in the test with SK-MEL-5 melanoma, with IGROV1 ovarian and in the test with NCI-H23 lung was greater than 100 µM throughout. For the same molecule, the TGI with LOX IMVI melanoma, in the test on A498 renal, with OVCAR-5 ovarian and in the test with TK-10 renal was greater than 100 µM in each case.
Turning to `Cc1ccc(Cl)c(NS(=O)(=O)c2ccc(-c3cnc(C4CC4)o3)cc2)c1`, the GI50 in the test with NCI/ADR-RES ovarian is 0.0618 µM; in the test with HOP-62 NSCLC, 0.268 µM; with SR leukemia it was 0.0549 µM; in the test on SK-MEL-5 melanoma, 0.399 µM; with IGROV1 ovarian, 0.129 µM; with NCI-H23 lung, 0.365 µM. Further, the GI50 in the test with LOX IMVI melanoma was 0.226 µM; in the test with A498 renal, 0.0286 µM; in the test with OVCAR-5 ovarian it was 0.439 µM; with TK-10 renal, 16 µM. Further, the TGI in the test with NCI/ADR-RES ovarian is 6.04 µM; with HOP-62 NSCLC, greater than 83.7 µM; with SR leukemia it was greater than 63.3 µM; with SK-MEL-5 melanoma, 3.72 µM; in the test with IGROV1 ovarian, greater than 100 µM; in the test with NCI-H23 lung, 62.8 µM. The TGI is 18.5 µM in the test on LOX IMVI melanoma, 0.303 µM in the test on A498 renal, greater than 100 µM in the test with OVCAR-5 ovarian and greater than 89.7 µM with TK-10 renal.
As to `O=C(/C=C/c1ccccn1)c1ccc(OCc2nnc(-c3ccc(Cl)cc3)o2)cc1`, the GI50 in the test with NCI/ADR-RES ovarian is 3.67 µM; with HOP-62 NSCLC, 2.26 µM; in the test with SR leukemia, 0.291 µM; in the test with SK-MEL-5 melanoma it was 1.56 µM; in the test with IGROV1 ovarian it was 1.96 µM; in the test with NCI-H23 lung it was 2.13 µM. In addition, the GI50 was 1.57 µM in the test on LOX IMVI melanoma, 4.5 µM with A498 renal, 2.49 µM in the test with OVCAR-5 ovarian and 2.68 µM in the test with TK-10 renal. The TGI turned out to be 41.3 µM with NCI/ADR-RES ovarian; 5.65 µM with HOP-62 NSCLC; 1.93 µM with SR leukemia; 3.14 µM in the test with SK-MEL-5 melanoma; 3.62 µM in the test with IGROV1 ovarian; 4.58 µM with NCI-H23 lung. In addition, the TGI in the test with LOX IMVI melanoma was found to be 3.01 µM; with A498 renal it was 17.2 µM; in the test with OVCAR-5 ovarian it was 4.89 µM; in the test on TK-10 renal, 6.24 µM.
In the case of `CS(=O)(=O)c1cccc(Nc2ncc3cc(-c4ccccc4Cl)ccc3n2)c1`, the GI50 in the test on NCI/ADR-RES ovarian was 1.24 µM; in the test on HOP-62 NSCLC, 1.3 µM; in the test with SR leukemia it was 0.8 µM; in the test on SK-MEL-5 melanoma it was 1.08 µM; in the test with IGROV1 ovarian it was 1.1 µM; with NCI-H23 lung it was 1.98 µM. Moreover, the GI50 with LOX IMVI melanoma was 1.06 µM; in the test with A498 renal, 1.75 µM; with OVCAR-5 ovarian it was 1.88 µM; with TK-10 renal, 1.9 µM. The TGI in the test with NCI/ADR-RES ovarian was 17.7 µM; with HOP-62 NSCLC it was greater than 33.3 µM; in the test on SR leukemia, greater than 33.3 µM; in the test with SK-MEL-5 melanoma, 4.04 µM; with IGROV1 ovarian, 12.4 µM; with NCI-H23 lung, greater than 33.3 µM. Besides, the TGI with LOX IMVI melanoma was 4.54 µM; in the test on A498 renal it was 12.1 µM; with OVCAR-5 ovarian, greater than 33.3 µM; in the test with TK-10 renal, 17.3 µM.
